Like-named read-outs stand apart in the source and are kept apart here.
How the values were obtained:
[1] = test method: maximization method; cited from earlier work
[2] = cited from earlier work
[3] = negative = satisfies at least one of (1) LLNA SI less than 3, (2) MSDS, (3) reference; cited from earlier work
[4] = test method: OECD Test Guideline 406; cited from earlier work
Female mice = assay: Skin sensitization test by LLNA (Local Lymph Node Assay) method, SI value; type: in vivo; conditions: test substance 50.0 w/v % in acetone:olive oil 4:1, 25 μL/auricle, once/day × 3 days, SI less than 3 = negative
Experimental: In the (1), it is judged that a compound is negative in skin sensitization when the SI value of the compound is less than 3, as described in the journal of “Function and Materials”, September, 2005, volume 25, No. 9, on page 55. The lower the SI value is, the lower skin sensitization is.
The SI value was measured by a skin sensitization test by LLNA (Local Lymph Node Assay) method as described below.
α-Hexyl cinnamaldehyde (HCA, available from Wako Pure Chemical Industries, Ltd.) was used as the positive control substance.
A mixture liquid obtained by mixing acetone (available from Wako Pure Chemical Industries, Ltd.) and an olive oil (available from Fujimi Pharmaceutical Co., Ltd.) at a volume ratio (acetone:olive oil) of 4:1 was used as the medium. […]
Based on the body weights of the animals measured two days before sensitization was started, the animals were divided into two groups (4 mice/group) in a manner that the body weight of each individual would be within ±20% of the average body weight of the whole group according to a body weight stratified random sampling method. […]
About twenty four hours after the BrdU administration, the animals were euthanized, and the auricular lymph nodes were extracted. […] The average value and standard error of the weight of the auricular lymph nodes per group were calculated. […]

Compound: C=C(C)C(=O)OCCCCC [Example A3, n-Pentyl methacrylate]
- Skin sensitization evaluated according to the reference [1]: negative
- Vapor pressure ([2]; 25° C.): 69.1 Pa
- Skin sensitization [3]: negative

Compound: CCC(Cc1ccc(C)cc1)(C(=O)c1ccc(N2CCOCC2)cc1)N(C)C (stereo not shown) [Example C2, 2-Dimethylamino-2-(4-methylbenzyl)-1-(4-morpholin-4-yl-phenyl)butan-1-one]
- Skin sensitization evaluated according to the MSDS [4]: nothing

Compound: C=C(C)C(=O)OCC(CC)(COC(=O)C(=C)C)COC(=O)C(=C)C [Example B6, Trimethylolpropane trimethacrylate]
- SI value (Stimulation Index) measured by LLNA test (Female mice): 1.9

Compound: CCC(Cc1ccc(C)cc1)(C(=O)c1ccc(N2CCOCC2)cc1)N(C)C (stereo not shown) [2-dimethylamino-2-(4-methylbenzyl)-1-(4-morpholin-4-yl-phenyl)butan-1-one]
- Skin sensitization [3]: negative

Compound: C=C(C)C(=O)OC(C)(C)C [Example A2, t-butyl methacrylate]
- Skin sensitization evaluated according to the reference [1]: negative
- Vapor pressure ([2]; 18.5° C.): 700 Pa
- Skin sensitization [3]: negative

Compound: C=C(C)C(=O)OCCCCCC [Example A4, n-Hexyl methacrylate]
- Skin sensitization evaluated according to the reference [1]: negative
- Vapor pressure ([2]; 20° C.): 34.7 Pa
- Skin sensitization [3]: negative

Compound: polyethylene glycol dimethacrylate
- Skin sensitization [3]: negative

Compound: C=C(C)C(=O)OCC(CO)OC(=O)C(=C)C (stereo not shown) [Example B2, Glycerol dimethacrylate]
- SI value (Stimulation Index) measured by LLNA test (Female mice): 1.2
- Skin sensitization [3]: negative

Compound: O=C(c1ccccc1)C1(O)CCCCC1 [Example C1, 1-Hydroxy-cyclohexyl phenyl ketone]
- Skin sensitization evaluated according to the MSDS [4]: nothing
- Skin sensitization [3]: negative

Compound: CSc1ccc(C(=O)C(C)(C)N2CCOCC2)cc1 [Example C3, 2-[4-(Methylthio)benzoyl]-2-(4-morpholinyl)propane]
- Skin sensitization evaluated according to the MSDS [4]: nothing

Compound: Caprolactone-modified dipentaerythritolhexaacrylate [Example B5]
- Skin sensitization [3]: negative

Compound: tricyclodecane dimethanol dimethacrylate
- Skin sensitization [3]: negative

Compound: C=CC(=O)OCc1ccccc1 [benzyl acrylate, reference compound]
- Vapor pressure ([2]; 25° C.): 9.7 Pa
- Skin sensitization [3]: positive

From US10414150B2, “Active-energy-ray-curable composition, composition stored container, two-dimensional or three-dimensional image forming apparatus, method for forming two-dimensional or three-dimensional image, and cured product” (Ricoh Company, Ltd., priority 2015, dated 2019)
